# Measured values: patent US10021880B2, “Diarylimidazole compound and harmful organism control agent” (Nippon Soda Co., Ltd., priority 2014, dated 2018)
# Tests used:
# Aphis gossypii [1] = assay: Efficacy test against Aphis gossypii (root-dipping test); format: in vivo; details: 8 ppm in hydroponic liquid, cucumber, nymphs, after 6 days
# From the text: (§1) 5 parts of the compound of the present invention, 93.6 parts of dimethyl formamide and 1.4 parts of polyoxyethylene alkylaryl ether were mixed and dissolved to obtain emulsion (I) including 5% of active ingredient.
# Cucumber plants raised in No. 3 pots were pulled out from the pots, then the soil attached to the roots was washed with tap water, followed by hydroponic-cultivating the cucumber plants by soaking the roots in tap water. The cucumber seedlings were inoculated with nymphs of Aphis gossypii. Emulsion (I) was diluted with water to obtain a diluted liquid with a concentration of 8 ppm of the compound of the present invention. The tap water was replaced with the diluted liquid, and then the hydrophonic-cultivation was continued in a temperature-controlled room with a temperature was 25° C. and humidity of 60%.
# After 6 days were passed from the hydrophonic-cultivation in the diluted liquid, mortality of Aphis gossypii was investigated and the insect mortality rate was calculated. The test was repeated twice.
# Pseudaletia separate = assay: Efficacy test against Pseudaletia separate (maize leaf dip); format: in vivo; details: foliar, 144 h, maize leaves soaked 30 seconds, second-instar larvae, after 6 days, 25° C., read-out: insect mortality rate against Pseudaletia separate
# Protocol: as §1
# (§2) Emulsion (I) was diluted with water so that the concentration of the compound of the present invention reaches 125 ppm. Maize leaves were soaked in the diluted liquid for 30 seconds. Then the maize leaves were put on Petri dishes, followed by inoculating 5 second-instar larvae of Pseudaletia separate. The Petri dishes were placed in a temperature-controlled room with a temperature of 25° C. and humidity of 60%. Mortality was investigated after 6 days were passed, and the insect mortality rate was calculated. The test was repeated twice.
# Spodoptera litura = assay: Efficacy test against Spodoptera litura (cabbage leaf dip); format: in vivo; details: foliar, 144 h, cabbage leaves soaked 30 seconds, second-instar larvae, after 6 days, 25° C., read-out: insect mortality rate against Spodoptera litura
# Protocol: as §1
# as §2, with “Emulation (I)” for “Emulsion (I)”, “ppm. Cabbage” for “ppm. Maize”, “the cabbage” for “the maize”, “of Spodoptera litura.” for “of Pseudaletia separate.”, “temperature was” for “temperature of”
# Plutella xylostella = assay: Efficacy test against Plutella xylostella (cabbage leaf dip); format: in vivo; details: foliar, 72 h, cabbage leaves soaked 30 seconds, second-instar larvae, after 3 days, 25° C., read-out: mortality rate against Plutella xylostella
# Protocol: as §1
# as §2, with “ppm. Cabbage” for “ppm. Maize”, “the cabbage” for “the maize”, “of Plutella xylostella.” for “of Pseudaletia separate.”, “temperature was” for “temperature of”, “after 3” for “after 6”
# Musca domestica = assay: Efficacy test against Musca domestica (treated cube sugar); format: in vivo; details: 100 ppm on cube sugar, after 24 hours, 25° C.
# Protocol: The compound of the present invention was diluted with acetone, followed by dropping to 1 g of cube sugar so that the concentration reaches to 100 ppm. The cube sugar was placed in a plastic cup and 10 adult female Musca domestica were released therein, followed by putting the lid on the cup. The cup was kept at 25° C., the mortality was investigated after 24 hours was passed from the releasing of Musca domestica and the insect mortality rate was calculated by the following equation. The test was repeated twice. Insect mortality rate (%)=(number of dead insects/number of sample insects)×100
# Culex pipiens = assay: Efficacy test against Culex pipiens (larvae in chemical solution); format: in vivo; details: 2 ppm in water, after 1 day
# Protocol: as §1
# Emulsion (I) was diluted with water so that the concentration of the compound of the present invention reaches 2 ppm to prepare a chemical solution for test. 20 first-instar larvae of Culex pipiens were released into 100 ml of the chemical solution for test, then the number of dead insects was calculated after 1 day was passed, and the insect mortality rate was calculated by the following equation. The test was repeated twice. Insect mortality rate (%)=(number of dead insects/number of sample insects)×100
# Aphis gossypii [2] = assay: Efficacy test against Aphis gossypii (spray on cucumber seedlings); format: in vivo; details: sprayed on cucumber seedlings inoculated with nymphs, 4 days after spraying, read-out: mortality rate against Aphis gossypii
# Protocol: as §1
# Cucumber plants were raised in No. 3 pots and the first true leaves were inoculated with nymphs of Aphis gossypii. Emulation (I) was diluted with water so that the concentration of the compound of the present invention reaches 125 ppm, followed by spraying the diluted liquid on the cucumber seedlings. The cucumber seedlings were then placed in a temperature-controlled room with a temperature of 25° C. and humidity of 60%. Mortality was investigated after 4 days were passed from the spraying, and the insect mortality rate of Aphis gossypii was calculated. The test was repeated twice.
# Tetranychus kanzawai = assay: Efficacy test against Tetranychus kanzawai (spray on kidney bean seedlings); format: in vivo; details: 240 h, sprayed on kidney bean seedlings, adult mortality 10 days after spraying, 25° C., humidity 65%, read-out: mortality rate against Tetranychus kanzawai
# Protocol: as §1
# Kidney bean plants were raised in No. 3 pots and the primary leaves were inoculated with 10 adult female Tetranychus kanzawai. Emulation (I) was diluted with water so that the concentration of the compound of the present invention reaches 125 ppm, followed by spraying the diluted liquid on the kidney bean seedlings. The kidney bean seedlings were then placed in a temperature-controlled room with a temperature of 25° C. and humidity of 65%. Mortality of the adult Tetranychus kanzawai was investigated after 10 days were passed from the spraying, and the insect mortality rate of Tetranychus kanzawai was calculated. The test was repeated twice.
Structure (SMILES),mortality at 125 ppm (Pseudaletia separate),mortality at 125 ppm (Spodoptera litura),mortality at 125 ppm (Plutella xylostella),other results
CCS(=O)(=O)c1cnccc1-c1ncc(-c2ccc(C(F)(F)F)cc2)n1C [Compound 3-1],–,–,–,"insect mortality rate (Aphis gossypii, root-dipping test) (Aphis gossypii [1]): ≥ 80%"
"CCSc1cc(C(F)(F)F)ccc1-c1ncc(-c2ccc(C(F)(F)F)cc2)n1C [Compound 1-7, 2-(2-(ethylsulfanyl)-4-(trifluoromethyl)phenyl)-1-methyl-5-(4-(trifluoromethyl)phenyl)-1H-imidazole]",≥ 80%,≥ 80%,≥ 80%,–
Cn1c(-c2ccc(C(F)(F)F)cc2)c[n+]([O-])c1-c1ccc(C(F)(F)F)cc1F,–,–,–,melting point: 229 to 231 °C
CCS(=O)(=O)c1cc(C(F)(F)F)ccc1-c1ncc(-c2ccc(OC(F)(F)F)cc2)n1C [Compound 1-35],–,–,–,insect mortality rate against the adult female Musca domestica (Musca domestica): 100%; insect mortality rate against the first-instar larvae of Culex pipiens (Culex pipiens): 100%
"CCS(=O)(=O)c1cc(C(F)(F)F)ccc1-c1ncc(-c2ccc(C(F)(F)F)cc2)n1C [Compound 1-3, 2-(2-(ethylsulfonyl)-4-(trifluoromethyl)phenyl)-1-methyl-5-(4-(trifluoromethyl)phenyl)-1H-imidazole]",≥ 80%,≥ 80%,≥ 80%,mortality at 125 ppm (Aphis gossypii [2]): ≥ 80%
"Cn1c(-c2ccc(C(F)(F)F)cc2)cnc1-c1ccc(C(F)(F)F)cc1F [Compound 1-4, 2-(2-fluoro-4-(trifluoromethyl)phenyl)-1-methyl-5-(4-(trifluoromethyl)phenyl)-1H-imidazole]",–,–,–,mortality at 125 ppm (Tetranychus kanzawai): ≥ 90%
